Reference: patent publication US10781203B2, “Nontoxic compounds for the treatment and prevention of herpesvirus infections” (The Penn State Research Foundation, priority 2016, dated 2020)

Target: T1, STX5 (Homo sapiens, UniProt Q13190)
T1 construct: immunofluorescence detection of STX5 in uninfected (Mock) and HCMV-infected cells (96 hpi) in the presence of DMSO control or Retro94; endogenous in cells; host or cells: uninfected (mock) or HCMV-infected cells
T1 sequence (Q13190 1-355): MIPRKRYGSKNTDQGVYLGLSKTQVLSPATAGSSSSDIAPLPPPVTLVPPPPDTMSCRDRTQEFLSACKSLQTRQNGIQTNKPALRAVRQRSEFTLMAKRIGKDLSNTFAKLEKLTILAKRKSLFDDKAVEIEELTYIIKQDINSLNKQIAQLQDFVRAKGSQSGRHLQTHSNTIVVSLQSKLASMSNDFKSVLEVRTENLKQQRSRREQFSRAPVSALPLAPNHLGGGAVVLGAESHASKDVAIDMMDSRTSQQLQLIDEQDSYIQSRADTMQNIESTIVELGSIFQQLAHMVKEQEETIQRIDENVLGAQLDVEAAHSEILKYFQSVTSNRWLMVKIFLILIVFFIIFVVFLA
Experiment: Immunofluorescence detection of STX5 localization
Type: cell-based
Protocol: Coverslips or chamber slides containing either uninfected or HCMV-infected cells were washed in phosphate-buffered saline (PBS) and fixed in 2% paraformaldehyde for 15 min at room temperature. Cells were blocked in PBS containing 10% human serum, 0.5% Tween-20, and 5% glycine. 0.1% Triton-X 100 was added for permeabilization. Primary and secondary antibodies as specified in the antibody section were diluted in blocking buffer. Nuclei were stained with DAPI prior to mounting with ProLong Diamond Antifade Mountant (ThermoScientific). For live-cell experiments using the pp28-mCherry virus, cells were grown on glass bottom microwell dishes (MatTek Corporation) and nuclei were stained with NucBlue Live Cell Stain ReadyProbes reagent (ThermoScientific). All images were acquired using a C2+ Confocal Microscope System (Nikon). Images were processed using NIS elements software. Images shown are volume renderings of Z-stacks.

Cc1nc(-c2ccc(C3N(C)c4ccccc4C(=O)N3c3ccccc3)s2)cs1 (centres unmarked) [Retro94, 1-Methyl-2-(5-(2-methylthiazol-4-yl)thiophen-2-yl)-3phenyl-2,3-dihydroquinazolin-4(1H)-one]
STX5 localization (HCMV-infected cells, 96 hpi): dispersed throughout the cell and was not located to the cVAC ring
STX5 localization (uninfected cells): lost its Golgi-localization
